{"source": "patent US9855245B2", "about": "“Methods for improving lipid profiles using atrasentan” (AbbVie Inc., priority 2013, dated 2018)", "key": {"[1]": {"tested_on": "subjects with type 2 diabetes and nephropathy", "assay": "Example 3: Phase 2b randomized, double-blind, placebo-controlled 8-week study with thoracic bioimpedance", "assay_type": "in vivo, human", "conditions": "for Death / Fatal adverse event: N = 16; for UACR Change from Baseline LS Mean (SE) / UACR Geometric Mean Change (Percent): baseline to final on-treatment measurement", "description": "This study also included measurement of thoracic bioimpedance to assess the potential for thoracic fluid retention with atrasentan.\nAn equal percentage of subjects in all 3 groups experienced an adverse event (81.3%). […] (Table 17).\nA mean decrease of 4 ohms in thoracic bioimpedance, as measured by the ZOE® Fluid Status Monitor, is considered clinically indicative of thoracic fluid overload. Mean thoracic bioimpedance fluctuated in all treatment groups over time, with greater mean changes in the 2 atrasentan groups than in the placebo group."}, "ETAR": {"target": "T1, ETAR (Homo sapiens, UniProt P25101)", "T1 construct": "Instead it rises proportionally across the ETAR receptor occupancy curve", "T1 sequence (P25101 21-427)": "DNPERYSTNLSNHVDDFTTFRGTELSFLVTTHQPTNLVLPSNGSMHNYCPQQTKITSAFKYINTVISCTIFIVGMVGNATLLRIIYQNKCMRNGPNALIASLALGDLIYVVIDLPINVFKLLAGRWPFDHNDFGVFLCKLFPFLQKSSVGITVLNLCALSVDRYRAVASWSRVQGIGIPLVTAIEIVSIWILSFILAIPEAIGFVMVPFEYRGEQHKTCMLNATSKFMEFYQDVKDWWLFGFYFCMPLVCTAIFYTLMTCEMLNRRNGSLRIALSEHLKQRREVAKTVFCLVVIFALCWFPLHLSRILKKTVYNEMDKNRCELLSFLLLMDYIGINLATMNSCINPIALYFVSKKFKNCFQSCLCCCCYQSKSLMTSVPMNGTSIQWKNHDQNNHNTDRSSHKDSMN", "assay": "Example 6: receptor occupancy data overlaid on edema risk"}}}
{"smiles": "CCCCN(CCCC)C(=O)CN1C[C@H](c2ccc3c(c2)OCO3)[C@@H](C(=O)O)[C@@H]1c1ccc(OC)cc1", "note": "[Atrasentan, (2R,3R,4S)-4-(1,3-benzodioxol-5-yl)-1-[2-(dibutylamino)-2-oxoethyl]-2-(4-methoxyphenyl)pyrrolidine-3-carboxylic acid]", "values": [{"measurement": "Death", "setting": "[1]; 0.5 mg", "value": "0 N (%) of Subjects"}, {"measurement": "Fatal adverse event", "setting": "[1]; 0.5 mg", "value": "0 N (%) of Subjects"}, {"measurement": "Cholesterol, Difference (95% CI) from placebo", "setting": "[1]; 0.5 mg/day", "value": "3.6 (−19.26, 26.46) mg/dL"}, {"measurement": "Cholesterol, Final On-Treatment Visit Mean (SD)", "setting": "[1]; 0.5 mg/day", "value": "155.1 (40.36) mg/dL"}, {"measurement": "Cholesterol, LS Mean Change from Baseline (SE)", "setting": "[1]; 0.5 mg/day", "value": "−1.5 (7.05) mg/dL"}, {"measurement": "HDL-C, Difference (95% CI) from placebo", "setting": "[1]; 0.5 mg/day", "value": "1.9 (−3.54, 7.28) mg/dL"}, {"measurement": "HDL-C, Final On-Treatment Visit Mean (SD)", "setting": "[1]; 0.5 mg/day", "value": "41.1 (9.92) mg/dL"}, {"measurement": "HDL-C, LS Mean Change from Baseline (SE)", "setting": "[1]; 0.5 mg/day", "value": "−0.5 (1.67) mg/dL"}, {"measurement": "Had ≧30% Reduction in UACR and No Edema (no moderate or severe adverse event of edema)", "setting": "[1]; 0.5 mg/day", "value": 31.3, "unit": "%"}, {"measurement": "LDL-C, Difference (95% CI) from placebo", "setting": "[1]; 0.5 mg/day", "value": "3.1 (−19.49, 25.75) mg/dL"}, {"measurement": "LDL-C, Final On-Treatment Visit Mean (SD)", "setting": "[1]; 0.5 mg/day", "value": "68.1 (23.33) mg/dL"}, {"measurement": "LDL-C, LS Mean Change from Baseline (SE)", "setting": "[1]; 0.5 mg/day", "value": "−0.3 (6.67) mg/dL"}, {"measurement": "Percentage of Subjects with ≧30% Reduction in Log-Transformed UACR from Baseline to Final Measurement", "setting": "[1]; 0.5 mg/day", "value": 50.0, "unit": "%"}, {"measurement": "Percentage of Subjects with ≧40% Reduction in Log-Transformed UACR from Baseline to Final Measurement", "setting": "[1]; 0.5 mg/day", "value": 31.3, "unit": "%"}, {"measurement": "Percentage of Subjects with ≧50% Reduction in Log-Transformed UACR from Baseline to Final Measurement", "setting": "[1]; 0.5 mg/day", "value": 18.8, "unit": "%"}, {"measurement": "Triglycerides, Difference (95% CI) from placebo", "setting": "[1]; 0.5 mg/day", "value": "−29.8 (−14.09, 44.49) mg/dL"}, {"measurement": "Triglycerides, Final On-Treatment Visit Mean (SD)", "setting": "[1]; 0.5 mg/day", "value": "206.1 (71.42) mg/dL"}, {"measurement": "Triglycerides, LS Mean Change from Baseline (SE)", "setting": "[1]; 0.5 mg/day", "value": "−2.3 (22.89) mg/dL"}, {"measurement": "geometric mean reduction in UACR, baseline to final on-treatment measurement", "setting": "[1]; 0.5 mg/day", "value": 27.7, "unit": "%"}, {"measurement": "UACR Between-group Comparison Difference (90% CI)", "setting": "[1]; 0.5 mg/day vs placebo", "value": "0.04 (−0.28, 0.36)"}, {"measurement": "UACR Change from Baseline LS Mean (SE)", "setting": "[1]; 0.5 mg/day", "value": "−0.32", "unit": "log mg/g creatinine"}, {"measurement": "UACR Geometric Mean Change (Percent)", "setting": "[1]; 0.5 mg/day", "value": "−27.69", "unit": "%"}, {"measurement": "Death", "setting": "[1]; 1.25 mg", "value": "0 N (%) of Subjects"}, {"measurement": "Fatal adverse event", "setting": "[1]; 1.25 mg", "value": "0 N (%) of Subjects"}, {"measurement": "Cholesterol, Difference (95% CI) from placebo", "setting": "[1]; 1.25 mg/day", "value": "−14.7 (−37.99, 8.54) mg/dL"}, {"measurement": "Cholesterol, Final On-Treatment Visit Mean (SD)", "setting": "[1]; 1.25 mg/day", "value": "169.4 (46.02) mg/dL"}, {"measurement": "Cholesterol, LS Mean Change from Baseline (SE)", "setting": "[1]; 1.25 mg/day", "value": "−19.9 (7.30) mg/dL"}, {"measurement": "HDL-C, Difference (95% CI) from placebo", "setting": "[1]; 1.25 mg/day", "value": "−1.4 (−6.89, 4.13) mg/dL"}, {"measurement": "HDL-C, Final On-Treatment Visit Mean (SD)", "setting": "[1]; 1.25 mg/day", "value": "53.9 (22.23) mg/dL"}, {"measurement": "HDL-C, LS Mean Change from Baseline (SE)", "setting": "[1]; 1.25 mg/day", "value": "−3.7 (1.73) mg/dL"}, {"measurement": "Had ≧30% Reduction in UACR and No Edema (no moderate or severe adverse event of edema)", "setting": "[1]; 1.25 mg/day", "value": 28.6, "unit": "%"}, {"measurement": "LDL-C, Difference (95% CI) from placebo", "setting": "[1]; 1.25 mg/day", "value": "−9.8 (−33.30, 13.64) mg/dL"}, {"measurement": "LDL-C, Final On-Treatment Visit Mean (SD)", "setting": "[1]; 1.25 mg/day", "value": "78.9 (37.01) mg/dL"}, {"measurement": "LDL-C, LS Mean Change from Baseline (SE)", "setting": "[1]; 1.25 mg/day", "value": "−13.3 (7.21) mg/dL"}, {"measurement": "Percentage of Subjects with ≧30% Reduction in Log-Transformed UACR from Baseline to Final Measurement", "setting": "[1]; 1.25 mg/day", "value": 42.9, "unit": "%"}, {"measurement": "Percentage of Subjects with ≧40% Reduction in Log-Transformed UACR from Baseline to Final Measurement", "setting": "[1]; 1.25 mg/day", "value": 42.9, "unit": "%"}, {"measurement": "Percentage of Subjects with ≧50% Reduction in Log-Transformed UACR from Baseline to Final Measurement", "setting": "[1]; 1.25 mg/day", "value": 35.7, "unit": "%"}, {"measurement": "Triglycerides, Difference (95% CI) from placebo", "setting": "[1]; 1.25 mg/day", "value": "−31.0 (−108.09, 46.10) mg/dL"}, {"measurement": "Triglycerides, Final On-Treatment Visit Mean (SD)", "setting": "[1]; 1.25 mg/day", "value": "187.1 (115.90) mg/dL"}, {"measurement": "Triglycerides, LS Mean Change from Baseline (SE)", "setting": "[1]; 1.25 mg/day", "value": "−3.5 (24.59) mg/dL"}, {"measurement": "geometric mean reduction in UACR, baseline to final on-treatment measurement", "setting": "[1]; 1.25 mg/day", "value": 37.4, "unit": "%"}, {"measurement": "total cholesterol, LDL-C, and triglycerides compared with placebo", "setting": "[1]; 1.25 mg/day", "value": "greater mean decreases"}, {"measurement": "UACR Between-group Comparison Difference (90% CI)", "setting": "[1]; 1.25 mg/day vs placebo", "value": "−0.11 (−0.43, 0.21)"}, {"measurement": "UACR Change from Baseline LS Mean (SE)", "setting": "[1]; 1.25 mg/day", "value": "−0.47", "unit": "log mg/g creatinine"}, {"measurement": "UACR Geometric Mean Change (Percent)", "setting": "[1]; 1.25 mg/day", "value": "−37.45", "unit": "%"}, {"measurement": "Receptor Occupancy", "setting": "ETAR; Dose 0.25 mg", "value": 25, "unit": "%"}, {"measurement": "Receptor Occupancy", "setting": "ETAR; Dose 0.75 mg", "value": 47, "unit": "%"}, {"measurement": "Receptor Occupancy", "setting": "ETAR; Dose 1.75 mg", "value": 67, "unit": "%"}]}
